Values of other authors, collected in US12527845B2, “Formulations” (Arecor Limited, priority 2016, dated 2026).

Details: 25° C.

| Compound | log K with respect to zinc ion binding |
| --- | --- |
| O=C(O)CN(CCN(CC(=O)O)CC(=O)O)CC(=O)O [EDTA, ethylenediaminetetraacetate] | 14.5 |
| O=P(O)(O)OP(=O)(O)O [pyrophosphate] | 8.71 |
| O=C(O)CC(O)(CC(=O)O)C(=O)O [citrate] | 4.93 |
| NCCNCCNCCN [TETA, triethylenetetramine] | 11.95 |
| O=C(O)CN(CCOCCOCCN(CC(=O)O)CC(=O)O)CC(=O)O [EGTA, ethyleneglycoltetraacetate] | 12.6 |
| NCCNCCN [DETA, diethylenetriamine] | 8.88 |
| N[C@@H](CS)C(=O)O [cysteine] | 9.11 |

More lines, now with the values ahead:

| log K with respect to zinc ion binding | Compound |
| --- | --- |
| 4.62 | N[C@@H](CCC(=O)O)C(=O)O [glutamate] |
| 7.98 | N[C@@H](CCC(=O)N[C@@H](CS)C(=O)NCC(=O)O)C(=O)O [glutathione] |
| 6.51 | N[C@@H](Cc1c[nH]cn1)C(=O)O [histidine] |
| 6.67 | N[C@@H](CSSC[C@H](N)C(=O)O)C(=O)O [cystine] |
| 5.69 | NCCN [ethylenediamine] |
